Laboratory results published in patent US20030138432A1, “Selective cellular targeting: multifunctional delivery vehicles, multifunctional prodrugs, use as antineoplastic drugs” (Drug Innovation & Design, Inc., priority 1999, published 2003).
Where two headings read alike, the source gives them in different places. Blank lines part the entries; values can stand above or below the compound they belong to.

How the values were obtained:
Protein Kinase C (PKC) = conditions: cited from earlier work
PKA = PKA (Homo sapiens, UniProt P17612); conditions: cited from earlier work
[1] = tested on: PSMA positive human prostate tumor cells; test: In vitro growth of PSMA positive prostate tumor cells with a PSMA inhibitor; format: cell-based; conditions: in the presence of high concentrations of the inhibitor
PSMA = target: T1, PSMA (Homo sapiens, UniProt Q04609); test: Inhibition of PSMA, radiolabelled N-acetylaspartylglutamate as substrate, generation of glutamic acid monitored; format: biochemical
T1 construct: PSMA was prepared from LNCaP prostatic carcinoma cells as described by Pinto J. T. et al; endogenous in cells; host or cells: LNCaP prostatic carcinoma cells
Description: PSMA was prepared from LNCaP prostatic carcinoma cells as described by Pinto J. T. et al., Clinical Cancer Res. Vol.2 p.1445 (1996). The enzyme was assayed employing radiolabelled N-acetylaspartylglutamate as a substrate and monitoring the generation of glutamic acid in the presence of varying concentrations of Compound 1 or 1.1. […] Compound 1.1 inhibited the enzyme 50% at 3.4 nM.

[2] = read-out: IC50 (cytotoxin); cited from earlier work
[3] = target: dihydroorotic acid dehydrogenase (Homo sapiens, UniProt Q02127); conditions: cited from earlier work
IMP dehydrogenase = conditions: cited from earlier work

T1 sequence (Q04609 whole entry): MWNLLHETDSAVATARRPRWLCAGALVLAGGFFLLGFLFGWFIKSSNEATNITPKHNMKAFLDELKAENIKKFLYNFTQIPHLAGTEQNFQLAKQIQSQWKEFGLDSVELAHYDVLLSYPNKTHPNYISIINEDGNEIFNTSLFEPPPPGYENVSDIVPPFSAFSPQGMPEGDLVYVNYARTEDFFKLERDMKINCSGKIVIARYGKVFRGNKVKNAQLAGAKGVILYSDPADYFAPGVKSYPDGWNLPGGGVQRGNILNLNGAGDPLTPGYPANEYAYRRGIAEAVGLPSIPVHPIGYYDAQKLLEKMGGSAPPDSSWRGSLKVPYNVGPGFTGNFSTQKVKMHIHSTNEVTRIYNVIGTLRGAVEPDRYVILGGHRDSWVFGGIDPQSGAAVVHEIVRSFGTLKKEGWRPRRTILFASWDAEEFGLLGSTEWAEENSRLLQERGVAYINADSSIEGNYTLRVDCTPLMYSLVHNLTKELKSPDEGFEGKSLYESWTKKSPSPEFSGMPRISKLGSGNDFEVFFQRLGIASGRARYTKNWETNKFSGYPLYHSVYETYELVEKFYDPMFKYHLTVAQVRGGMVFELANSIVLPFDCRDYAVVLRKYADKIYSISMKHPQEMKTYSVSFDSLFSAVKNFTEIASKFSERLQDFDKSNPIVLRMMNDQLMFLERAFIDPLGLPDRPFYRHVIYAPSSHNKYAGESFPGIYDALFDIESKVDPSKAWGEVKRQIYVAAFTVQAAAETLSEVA
Chain of dihydroorotic acid dehydrogenase (Q02127 whole entry): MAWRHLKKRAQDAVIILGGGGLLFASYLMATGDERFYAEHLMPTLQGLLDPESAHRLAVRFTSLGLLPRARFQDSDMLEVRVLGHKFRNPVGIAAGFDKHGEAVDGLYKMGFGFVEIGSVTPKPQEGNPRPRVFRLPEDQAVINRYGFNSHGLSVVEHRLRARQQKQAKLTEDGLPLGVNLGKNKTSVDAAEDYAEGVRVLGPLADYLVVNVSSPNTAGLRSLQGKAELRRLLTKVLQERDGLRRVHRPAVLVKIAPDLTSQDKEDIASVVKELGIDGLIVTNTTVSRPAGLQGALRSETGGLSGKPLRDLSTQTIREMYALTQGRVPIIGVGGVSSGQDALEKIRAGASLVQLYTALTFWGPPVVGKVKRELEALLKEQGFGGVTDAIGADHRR

Compound: 10″-deoxybalanol
Ki (Protein Kinase C (PKC)): 640 nM
Ki (PKA): 4 nM

Compound: O=C(O)CCC(CP(=O)(O)O)C(=O)O (stereo not shown) [2-(phosphonomethyl)-pentanedioic acid]
growth of tumor cells in vitro [1]: readily grow

Compound: O=C(O)CCC(CP(=O)(O)CCC(=O)NC(CCCCNC(=S)Nc1ccc(-c2c3ccc(=O)cc-3oc3cc(O)ccc23)c(C(=O)O)c1)C(=O)NCCc1ccc(O)cc1)C(=O)O (stereo not shown) [Compound 1.1]
IC50 (PSMA): 3.4 nM
Ki (PSMA): 3.4 nM

IC50 (PSMA; PSMA prepared from LNCaP prostatic carcinoma cells, radiolabelled N-acetylaspartylglutamate substrate, read-out: concentration that inhibited the enzyme 50%): 20 nM
Ki (PSMA; PSMA prepared from LNCaP prostatic carcinoma cells, read-out: Ki for inhibition of PSMA): 20 nM
Compound: O=C(O)CCC(OP(=O)(O)OCCCOCCNC(=O)CCCCCNS(=O)(=O)c1ccc(C2=c3cc4c5c(c3Oc3c2cc2c6c3CCCN6CCC2)CCC[N+]=5CCC4)c(S(=O)(=O)[O-])c1)C(=O)O (stereo not shown) [Compound 1]

Compound: COc1c(C)cc2c(c1O)C1C3Cc4c(OC(C)=O)c(C)c5c(c4C(CN4C(=O)c6ccccc6C4=O)N3C(C#N)C(C2)N1C)OCO5 (stereo not shown) [Phthalascidin]
IC50 [2]: 0.1 to 1 nM

Compound: Cc1c(-c2ccc(-c3ccccc3F)cc2)nc2ccc(F)cc2c1C(=O)O [brequinar]
level at which dihydroorotic acid dehydrogenase is inhibited [3]: nonamolar levels

Compound: COc1c(C)c2c(c(O)c1C/C=C(\C)CCC(=O)O)C(=O)OC2 [mycophenolic acid]
level at which IMP dehydrogenase is inhibited (IMP dehydrogenase): nanomolar levels
